In PubChem BioAssay (NCI):
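Briefly, cells in 96-well plates were exposed to five compound concentrations for 48 h, and endpoints were estimated by linear interpolation. The concentration for 50% growth inhibition is given as GI50. TGI denotes the concentration required for complete inhibition of growth.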

Columns and labels:
Experiment in all cases: DTP human tumour cell line panel, 48 h
A549 NSCLC = tested on: A549 NSCLC
DU-145 prostate = tested on: DU-145 prostate
HCT-116 colon = tested on: HCT-116 colon
HOP-62 NSCLC = tested on: HOP-62 NSCLC
OVCAR-3 ovarian = tested on: OVCAR-3 ovarian
SK-MEL-5 melanoma = tested on: SK-MEL-5 melanoma
SN12C renal = tested on: SN12C renal
SR leukemia = tested on: SR leukemia

Row | SMILES | GI50 (A549 NSCLC) | TGI (A549 NSCLC) | GI50 (DU-145 prostate) | TGI (DU-145 prostate) | GI50 (HCT-116 colon) | TGI (HCT-116 colon) | GI50 (HOP-62 NSCLC) | TGI (HOP-62 NSCLC) | GI50 (OVCAR-3 ovarian) | TGI (OVCAR-3 ovarian) | GI50 (SK-MEL-5 melanoma) | TGI (SK-MEL-5 melanoma) | GI50 (SN12C renal) | TGI (SN12C renal) | GI50 (SR leukemia) | TGI (SR leukemia)
1 | C1=C/COCc2cc(ccc2OCCN2CCCC2)Nc2nccc(n2)-c2ccc(o2)COC/1 | 2.23 µM | 12 µM | 1.57 µM | 13.8 µM | 0.757 µM | 10.6 µM | 2.28 µM | 6.91 µM | 1.99 µM | 8.48 µM | 1.79 µM | 4.07 µM | 0.99 µM | 5 µM |  | 
2 | Cc1ccc2nc(-c3ccc(OCC(=O)N=Nc4c(O)[nH]c5ccccc45)cc3)[nH]c2c1 | 2.38 µM | 6.32 µM | 3.29 µM | 13.5 µM | 2.26 µM | 5.35 µM | 19 µM | 45.4 µM | 1.97 µM | 3.79 µM | 11.9 µM | 56.1 µM | 2.42 µM | 7.73 µM | 0.499 µM | 3.76 µM
3 | O=C(O)/C=C\C(=O)Nc1ccccn1 |  | > 100 µM |  | > 100 µM |  | > 100 µM |  | > 100 µM |  | > 100 µM |  | > 100 µM |  | > 100 µM |  | > 100 µM
4 | O=[N+]([O-])c1cccc(-c2nc(-c3ccccc3)c(-c3ccccc3)[nH]2)c1 |  | > 100 µM |  | > 100 µM |  | > 100 µM |  | > 100 µM |  | > 100 µM |  | > 100 µM |  | > 100 µM |  | > 100 µM
5 | CSc1ncc(Br)c(Sc2nc(N)nc3nc[nH]c23)n1 | 9.77 µM | 71.1 µM | 1.44 µM | 23.9 µM | 4.2 µM | > 100 µM | 2.59 µM | > 100 µM | 3.32 µM | 11.1 µM | 3.12 µM | 36.1 µM | 3.8 µM | 36.5 µM |  | 
6 | O=C(Nc1ccc(F)cc1F)c1cc(Cl)ccc1O | 1.29 µM | 41 µM | 3 µM | 69.6 µM | 1.23 µM | 3.31 µM | 1.2 µM | 4.37 µM | 0.955 µM | 16.8 µM | 0.608 µM | 2.03 µM | 1.29 µM | 8.1 µM |  | 
7 | COc1ccc(C(=O)c2cc3c(N)c(C(=O)Nc4ccccc4)sc3nc2C)cc1 | 0.638 µM | > 100 µM | 2.21 µM | > 100 µM | 0.635 µM | > 100 µM | 1.69 µM | > 100 µM |  |  | 0.459 µM | 10.6 µM | 1.68 µM | > 100 µM | 0.376 µM | > 100 µM
8 | CN(Cc1ccc(C(F)(F)F)cc1)CC(O)C(=O)Nc1ccc(Cl)cc1 (stereo not given) | 1.69 µM | 3.16 µM | 1.38 µM | 2.77 µM | 1.12 µM | 2.6 µM | 1.7 µM | 3.18 µM | 1.55 µM | 3.03 µM | 1.67 µM | 3.11 µM | 1.49 µM | 2.88 µM |  | 
9 | CC1CN(S(=O)(=O)c2oc(-c3ccc(Cl)cc3)nc2C#N)CC(C)O1 (stereo not given) | 15.5 µM | 32.9 µM | 1.92 µM | 4.1 µM | 1.59 µM | 3.13 µM | 14 µM | 42.2 µM | 1.56 µM | 3.12 µM | 2.27 µM | 5.16 µM | 1.7 µM | 3.23 µM |  | 
10 | NCCCCC1NC(=O)C(CC(=O)O)NC(=O)CNC(=O)C(CCCN=C(N)N)NC(=O)C(N)CSSCC(C(=O)O)NC(=O)C(CC(=O)O)NC(=O)C2CCCN2C(=O)CNC1=O (stereo not given) | > 100 µM | > 100 µM | > 100 µM | > 100 µM | > 100 µM | > 100 µM | > 100 µM | > 100 µM | > 100 µM | > 100 µM | > 100 µM | > 100 µM | > 100 µM | > 100 µM |  | 
11 | Cn1cccc1-c1cc(-c2ccccc2)[nH]c(=O)c1C#N | > 100 µM | > 100 µM | > 100 µM | > 100 µM | > 100 µM | > 100 µM | > 100 µM | > 100 µM | > 100 µM | > 100 µM | > 100 µM | > 100 µM | > 100 µM | > 100 µM |  | 
12 | O=S1(=O)N(Cc2ccccc2)[C@@H](Cc2ccccc2)[C@H](O)[C@H](O)[C@H](Cc2ccccc2)N1Cc1ccccc1 | 2.99 µM | 7.62 µM | 3.21 µM | 7.55 µM | 2.43 µM | 5.05 µM | 3.71 µM | 7.34 µM | 2.9 µM | 6.07 µM | 3.05 µM | 5.8 µM | 3.26 µM | 7.68 µM |  | 
13 | CCN1CCN(c2cc(C)nc(N(CCCNc3ccnc4cc(Cl)ccc34)Cc3ccc4c(c3)OCO4)n2)CC1 | 3.67 µM | > 100 µM |  |  | 2.45 µM | 13.6 µM | 2.73 µM | 31.6 µM | 2.35 µM | 6.09 µM | 1.7 µM | 3.13 µM | 4.13 µM | > 100 µM |  | 
